Values quoted from earlier work in patent publication US10427959B2, “Method and system for the autonomous self-limiting generation of chlorine dioxide” (TRUOX, INC., priority 2016, dated 2019).
Where two headings read alike, the source gives them in different places.

Conditions: saturated aqueous solution

Row | Compound | solubility (at 25° C.) | solubility (at 20° C.)
1 | CC1(C)C(=O)N(Cl)C(=O)N1Br [BCDMH, 1,3-bromo-chloro-5,5-dimethylhydantoin] | 0.2 wt % | 
2 | CC1(C)C(=O)N(Br)C(=O)N1Br [DBDMH, 1,3-dibromo-5,5-dimethylhydantoin] |  | 0.1 wt %
